# Laboratory results reported in patent publication US9120779B2, “Inhibitors of HCV NS5A” (PRESIDIO PHARMACEUTICALS, INC., priority 2008, dated 2015).
# System: HCV genotype 1b replicon in Huh 7 cells
# Assay: HCV replicon assay (luciferase readout, 1b_Huh-Luc/Neo-ET cell line)
# Format: cell-based
# Details: Hepatitis C virus, Huh-7, 72 h, read-out: Inhibition of HCV genotype 1b, Table 1, 72 h incubation
# Description: Biological activity of the compounds of the invention was determined using an HCV replicon assay. The 1b_Huh-Luc/Neo-ET cell line persistently expressing a bicistronic genotype 1b replicon in Huh 7 cells was obtained from R^eBLikon GMBH. This cell line was used to test compound inhibition using luciferase enzyme activity readout as a measurement of compound inhibition of replicon levels.
# On Day 1 (the day after plating), each compound is added in triplicate to the cells. Plates incubated for 72 h prior to running the luciferase assay. Enzyme activity was measured using a Bright-Glo Kit (cat. number E2620) manufactured by Promega Corporation. The following equation was used to generate a percent control value for each compound. % Control=(Average Compound Value/Average Control)*100
# The EC50 value was determined using GraphPad Prism and the following equation: Y=Bottom+(Top−Bottom)/(1+10^((Log IC50−X)*HillSlope))
# EC50 values of compounds are repeated several times in the replicon assay.
# Example compounds of the disclosed invention are illustrated in Tables 1-9 attached as appendices. The tables show inhibitory activity of many of the example compounds with respect to HCV 1b. […] The tables further provide mass spectrometry results for the synthesized example compounds.
row,Structure (SMILES),EC50 [nM]
1,O=C(N[C@@H](C(=O)N1CCC[C@H]1C(=O)N[C@H]1CC[C@H](c2ccc(-c3cnc([C@@H]4CCCN4C(=O)[C@H](NC(=O)C4CC4)c4ccccc4)[nH]3)cc2)CC1)c1ccccc1)C1CC1 [compound 350],< 1
2,O=C(N[C@@H](C(=O)N1CCC[C@H]1C(=O)N[C@H]1CC[C@@H](c2ccc(-c3cnc([C@@H]4CCCN4C(=O)[C@H](NC(=O)C4CC4)c4ccccc4)[nH]3)cc2)CC1)c1ccccc1)C1CC1 [compound 351],< 1
3,CC(C)(C)OC(=O)N[C@@H](C(=O)N1CCC[C@H]1c1ncc(-c2ccc(C3CCC(c4cnc([C@@H]5CCCN5C(=O)[C@H](NC(=O)OC(C)(C)C)c5ccccc5)o4)CC3)cc2)[nH]1)c1ccccc1 (stereo partly shown) [compound 352],1 to 9.9
4,O=C(N[C@@H](C(=O)N1CCC[C@H]1c1ncc(-c2ccc(C3CCC(c4cnc([C@@H]5CCCN5C(=O)[C@H](NC(=O)C5CC5)c5ccccc5)o4)CC3)cc2)[nH]1)c1ccccc1)C1CC1 (stereo partly shown) [compound 353],< 1
5,O=C(N[C@H]1CC[C@H](c2ccc(-c3cnc([C@@H]4CCCN4C(=O)[C@H](NC(=O)N4CCOCC4)c4ccccc4)[nH]3)cc2)CC1)[C@@H]1CCCN1C(=O)[C@H](NC(=O)N1CCOCC1)c1ccccc1 [compound 354],1 to 9.9
6,O=C(N[C@H]1CC[C@@H](c2ccc(-c3cnc([C@@H]4CCCN4C(=O)[C@H](NC(=O)N4CCOCC4)c4ccccc4)[nH]3)cc2)CC1)[C@@H]1CCCN1C(=O)[C@H](NC(=O)N1CCOCC1)c1ccccc1 [compound 355],1 to 9.9
7,CC(C)[C@@H](NC(=O)OC(C)(C)C)C(=O)N1CCC[C@H]1C(=O)N[C@H]1CC[C@H](c2ccc(-c3cnc([C@@H]4CCCN4C(=O)[C@H](NC(=O)OC(C)(C)C)C(C)C)[nH]3)cc2)CC1 [compound 356],10 to 999
8,CC(C)[C@@H](NC(=O)OC(C)(C)C)C(=O)N1CCC[C@H]1C(=O)N[C@H]1CC[C@@H](c2ccc(-c3cnc([C@@H]4CCCN4C(=O)[C@H](NC(=O)OC(C)(C)C)C(C)C)[nH]3)cc2)CC1 [compound 357],10 to 999
9,O=C(N[C@@H](C(=O)N1CCC[C@H]1c1ncc(-c2ccc(C3CCC(c4cnc([C@@H]5CCCN5C(=O)[C@H](NC(=O)N5CCOCC5)c5ccccc5)o4)CC3)cc2)[nH]1)c1ccccc1)N1CCOCC1 (stereo partly shown) [compound 358],< 1
10,CN1CCN(C(=O)N[C@@H](C(=O)N2CCC[C@H]2c2ncc(-c3ccc(C4CCC(c5cnc([C@@H]6CCCN6C(=O)[C@H](NC(=O)N6CCN(C)CC6)c6ccccc6)o5)CC4)cc3)[nH]2)c2ccccc2)CC1 (stereo partly shown) [compound 359],1 to 9.9
11,CC(C)[C@@H](NC(=O)N1CCOCC1)C(=O)N1CCC[C@H]1C(=O)N[C@H]1CC[C@H](c2ccc(-c3cnc([C@@H]4CCCN4C(=O)[C@H](NC(=O)N4CCOCC4)C(C)C)[nH]3)cc2)CC1 [compound 360],10 to 999
12,CC(C)[C@@H](NC(=O)N1CCOCC1)C(=O)N1CCC[C@H]1C(=O)N[C@H]1CC[C@@H](c2ccc(-c3cnc([C@@H]4CCCN4C(=O)[C@H](NC(=O)N4CCOCC4)C(C)C)[nH]3)cc2)CC1 [compound 361],10 to 999
13,CC(C)(C)OC(=O)N[C@@H](C(=O)N1CCC[C@H]1C(=O)N[C@H]1CC[C@H](c2cccc(-c3cnc([C@@H]4CCCN4C(=O)[C@H](NC(=O)OC(C)(C)C)c4ccccc4)[nH]3)c2)CC1)c1ccccc1 [compound 362],1 to 9.9
14,CC(C)(C)OC(=O)N[C@@H](C(=O)N1CCC[C@H]1C(=O)N[C@H]1CC[C@@H](c2cccc(-c3cnc([C@@H]4CCCN4C(=O)[C@H](NC(=O)OC(C)(C)C)c4ccccc4)[nH]3)c2)CC1)c1ccccc1 [compound 363],< 1
15,O=C(N[C@H]1CC[C@H](c2cccc(-c3cnc([C@@H]4CCCN4C(=O)[C@H](NC(=O)N4CCOCC4)c4ccccc4)[nH]3)c2)CC1)[C@@H]1CCCN1C(=O)[C@H](NC(=O)N1CCOCC1)c1ccccc1 [compound 364],1 to 9.9
16,O=C(N[C@H]1CC[C@@H](c2cccc(-c3cnc([C@@H]4CCCN4C(=O)[C@H](NC(=O)N4CCOCC4)c4ccccc4)[nH]3)c2)CC1)[C@@H]1CCCN1C(=O)[C@H](NC(=O)N1CCOCC1)c1ccccc1 [compound 365],1 to 9.9
17,CC(C)[C@@H](NC(=O)OC(C)(C)C)C(=O)N1CCC[C@H]1c1ncc(-c2ccc(C3CCC(c4cnc([C@@H]5CCCN5C(=O)[C@H](NC(=O)OC(C)(C)C)C(C)C)[nH]4)CC3)cc2)[nH]1 (stereo partly shown) [compound 366],10 to 999
18,CC(C)(C)OC(=O)N[C@@H](C(=O)N1CCC[C@H]1c1ncc(-c2ccc(C3CCC(c4cnc([C@@H]5CCCN5C(=O)[C@H](NC(=O)OC(C)(C)C)c5ccccc5)[nH]4)CC3)cc2)[nH]1)c1ccccc1 (stereo partly shown) [compound 367],< 1

row,Structure (SMILES),EC50 [nM]
1,CC(C)(C)OC(=O)N[C@@H](C(=O)N1CCC[C@H]1C(=O)NC1CCC(c2ccc(-c3cnc([C@@H]4COCCN4C(=O)[C@H](NC(=O)OC(C)(C)C)c4ccccc4)[nH]3)cc2)CC1)c1ccccc1 (stereo partly shown) [compound 368],< 1
2,COC(=O)N[C@@H](C(=O)N1CCC[C@H]1c1ncc(-c2ccc([C@H]3CC[C@H](NC(=O)[C@@H]4CCCN4C(=O)[C@H](NC(=O)N4CCOCC4)c4ccccc4)CC3)cc2)[nH]1)c1ccccc1 [compound 369],1 to 9.9
3,COC(=O)N[C@@H](C(=O)N1CCC[C@H]1c1ncc(-c2ccc([C@H]3CC[C@@H](NC(=O)[C@@H]4CCCN4C(=O)[C@H](NC(=O)N4CCOCC4)c4ccccc4)CC3)cc2)[nH]1)c1ccccc1 [compound 370],1 to 9.9
4,O=C(N[C@@H](C(=O)N1CCC[C@H]1c1ncc(-c2ccc(C3CCC(c4cnc([C@@H]5CCCN5C(=O)[C@H](NC(=O)C5CC5)c5ccccc5)[nH]4)CC3)cc2)[nH]1)c1ccccc1)C1CC1 (stereo partly shown) [compound 371],< 1
5,O=C(NC1CCC(c2ccc(-c3cnc([C@@H]4COCCN4C(=O)C(NC(=O)N4CCOCC4)c4ccccc4)[nH]3)cc2)CC1)[C@@H]1CCCN1C(=O)C(NC(=O)N1CCOCC1)c1ccccc1 (stereo partly shown) [compound 372],1 to 9.9
6,COC(=O)N[C@@H](C(=O)N1CCC[C@H]1c1ncc(-c2ccc(C3CCC(c4cnc([C@@H]5CCCN5C(=O)[C@H](NC(=O)OC)c5ccccc5)[nH]4)CC3)cc2)[nH]1)c1ccccc1 (stereo partly shown) [compound 373],< 1
7,COC(=O)N[C@H](C(=O)N1CCC[C@H]1c1ncc(-c2ccc(C3CCC(c4cnc([C@@H]5CCCN5C(=O)[C@@H](NC(=O)OC)c5ccccc5)[nH]4)CC3)cc2)[nH]1)c1ccccc1 (stereo partly shown) [compound 374],< 1
8,COC(=O)N[C@H](Cc1ccccc1)C(=O)N1CCC[C@H]1c1ncc(C2CCC(c3ccc(-c4cnc([C@@H]5CCCN5C(=O)[C@@H](c5ccccc5)N5CCCC5)[nH]4)cc3)CC2)[nH]1 (stereo partly shown) [compound 375],< 1
9,COC(=O)N[C@@H](C(=O)N1CCC[C@H]1c1ncc(-c2ccc(C3CCC(c4cnc([C@@H]5CCCN5C(=O)[C@@H](c5ccccc5)N(C)C)[nH]4)CC3)cc2)[nH]1)c1ccccc1 (stereo partly shown) [compound 376],< 1
10,COC(=O)N[C@@H](C(=O)N1CCC[C@H]1c1ncc(C2CCC(c3ccc(-c4cnc([C@@H]5CCCN5C(=O)[C@@H](c5ccccc5)N(C)C)[nH]4)cc3)CC2)[nH]1)c1ccccc1 (stereo partly shown) [compound 377],< 1
11,COC(=O)N[C@@H](C(=O)N1CCC[C@H]1c1ncc(C2CCC(c3ccc(-c4cnc([C@@H]5CCCN5C(=O)[C@@H](c5ccccc5)N5CCOCC5)[nH]4)cc3)CC2)[nH]1)c1ccccc1 (stereo partly shown) [compound 378],< 1
12,COC(=O)N[C@@H](C(=O)N1CCC[C@H]1c1ncc(C2CCC(c3ccc(-c4cnc([C@@H]5CCCN5C(=O)[C@@H](c5ccccc5)N5CCCC5)[nH]4)cc3)CC2)[nH]1)c1ccccc1 (stereo partly shown) [compound 379],< 1
13,CN(C)[C@@H](C(=O)N1CCC[C@H]1c1ncc(C2CCC(c3ccc(-c4cnc([C@@H]5CCCN5C(=O)[C@H](NC(=O)C5CC5)c5ccccc5)[nH]4)cc3)CC2)[nH]1)c1ccccc1 (stereo partly shown) [compound 380],< 1
14,COC(=O)N[C@H](C(=O)N1CCC[C@H]1c1ncc(-c2ccc([C@H]3CC[C@H](c4cnc([C@@H]5CCCN5C(=O)[C@@H](NC(=O)OC)C(C)C)[nH]4)CC3)cc2)[nH]1)C(C)C [compound 381],< 1
15,COC(=O)N[C@H](C(=O)N1CCC[C@H]1c1ncc(-c2ccc([C@H]3CC[C@@H](c4cnc([C@@H]5CCCN5C(=O)[C@@H](NC(=O)OC)C(C)C)[nH]4)CC3)cc2)[nH]1)C(C)C [compound 382],< 1
16,CC(C)[C@H](NC(=O)OC(C)(C)C)C(=O)N1CCC[C@H]1c1ncc(-c2ccc([C@H]3CC[C@H](c4cnc([C@@H]5CCCN5C(=O)[C@@H](NC(=O)OC(C)(C)C)C(C)C)[nH]4)CC3)cc2)[nH]1 [compound 383],10 to 999
17,CC(C)[C@H](NC(=O)OC(C)(C)C)C(=O)N1CCC[C@H]1c1ncc(-c2ccc([C@H]3CC[C@@H](c4cnc([C@@H]5CCCN5C(=O)[C@@H](NC(=O)OC(C)(C)C)C(C)C)[nH]4)CC3)cc2)[nH]1 [compound 384],10 to 999

# Same assay, conditions: Hepatitis C virus, Huh-7, 72 h, read-out: Inhibition of HCV genotype 1b, Table 6, 72 h incubation
row,Structure (SMILES),EC50 [nM]
1,COC(=O)N[C@H](C(=O)N1CCC[C@H]1c1nc2ccc(-c3ccc4nc([C@@H]5CCCN5C(=O)[C@@H](NC(=O)OC)C(C)C)[nH]c4c3)cc2[nH]1)C(C)C [Compound 850],< 1

# Same assay, conditions: Hepatitis C virus, Huh-7, 72 h, read-out: Inhibition of HCV genotype 1b, Table 9, 72 h incubation
row,Structure (SMILES),EC50 [nM]
1,COC(=O)N[C@@H](C(=O)N1CCC[C@H]1c1nc(-c2ccc(/C=C/c3ccc(-c4cnc([C@@H]5CCCN5C(=O)[C@H](NC(=O)OC)c5ccccc5)[nH]4)cc3)cc2)c[nH]1)c1ccccc1 [Compound 2120],< 1
